pIC50: −log10 of the molar value.
Assays:
[1] = biological target: T1, human recombinant ETB receptors (Homo sapiens, UniProt P24530); assay: Inhibition of [125I]ET-1 binding to membranes from CHO cells carrying human ETB receptors
T1 construct: expressed in transfected cells; host or cells: CHO cells (microsomal membranes)
T1 sequence (P24530 27-442): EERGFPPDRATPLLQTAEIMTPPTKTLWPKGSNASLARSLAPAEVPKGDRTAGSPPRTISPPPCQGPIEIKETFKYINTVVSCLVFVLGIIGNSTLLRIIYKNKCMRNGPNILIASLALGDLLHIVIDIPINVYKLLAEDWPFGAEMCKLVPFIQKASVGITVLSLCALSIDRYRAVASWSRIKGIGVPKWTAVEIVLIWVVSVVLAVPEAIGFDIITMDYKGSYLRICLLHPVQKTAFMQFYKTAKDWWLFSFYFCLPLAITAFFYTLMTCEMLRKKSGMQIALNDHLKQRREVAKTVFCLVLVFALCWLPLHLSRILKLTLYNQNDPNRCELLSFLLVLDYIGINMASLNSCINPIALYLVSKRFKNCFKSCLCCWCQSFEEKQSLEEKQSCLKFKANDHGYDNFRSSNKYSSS
Description: (§1) 1) Inhibition of Endothelin Binding to Membranes from CHO Cells Carrying Human ET Receptors:
(§2) For competition binding studies, membranes of CHO cells expressing human recombinant ETA or ETB receptors were used.
(§3) The assay was performed in 200 uL 50 mM Tris/HCl buffer, pH 7.4, including 25 mM MnCl2, 1 mM EDTA and 0.5% (w/v) BSA in polypropylene microtiter plates. […] After 2 h, the membranes were filtered on filterplates containing GF/C filters (Unifilterplates from Canberra Packard S.A. Zürich, Switzerland). To each well, 50 uL of scintillation cocktail was added (MicroScint 20, Canberra Packard S.A. Zürich, Switzerland) and the filter plates counted in a microplate counter (TopCount, Canberra Packard S.A. Zürich, Switzerland).
(§4) All the test compounds were dissolved, diluted and added in DMSO.

[2] = biological target: T2, human recombinant ETA receptors (Homo sapiens, UniProt P25101); assay: Inhibition of [125I]ET-1 binding to membranes from CHO cells carrying human ETA receptors
T2 construct: expressed in transfected cells; host or cells: CHO cells (microsomal membranes)
T2 sequence (P25101 21-427): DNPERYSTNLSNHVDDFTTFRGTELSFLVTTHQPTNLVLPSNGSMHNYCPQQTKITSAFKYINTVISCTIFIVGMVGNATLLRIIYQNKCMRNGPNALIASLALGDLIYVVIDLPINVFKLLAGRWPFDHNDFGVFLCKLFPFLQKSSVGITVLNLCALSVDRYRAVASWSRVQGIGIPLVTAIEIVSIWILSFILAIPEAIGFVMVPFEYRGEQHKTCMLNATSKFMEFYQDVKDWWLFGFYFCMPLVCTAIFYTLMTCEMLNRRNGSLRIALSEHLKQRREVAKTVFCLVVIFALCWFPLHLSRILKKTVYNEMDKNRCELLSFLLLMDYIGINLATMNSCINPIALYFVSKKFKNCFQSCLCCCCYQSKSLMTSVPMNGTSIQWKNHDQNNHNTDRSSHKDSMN
Description: as §1, §2, §3, §4
Further: 2.5% DMSO.

| Structure (SMILES) | pIC50 [1] | pIC50 [2] |
| --- | --- | --- |
| CCCCS(=O)(=O)Nc1ncnc(OCCOc2ncc(SC)cn2)c1Oc1cccc(OC)c1 [Example 30] | 6.95 | 8.64 |
| CCCS(=O)(=O)Nc1ncnc(OCCOc2ncc(Br)cn2)c1-c1ccc(C)cc1 [Example 4, n-propanesulfonic acid {6-[2-(5-bromo-pyrimidin-2-yloxy)-ethoxy]-5-p-tolyl-pyrimidin-4-yl}-amide] | < 6.00 | 8.20 |
| CCCCS(=O)(=O)Nc1ncnc(OCCOc2ncc(OC)cn2)c1-c1ccc(Br)cc1 [Example 82] | < 6.00 | 8.90 |
| CCCCS(=O)(=O)Nc1nc(-c2ncccn2)nc(OCCOc2ncc(Br)cn2)c1Oc1ccccc1OC [Example 25] |  | 8.19 |
| CS(=O)(=O)Nc1ncnc(OCCOc2ncc(C3CC3)cn2)c1-c1ccc(Br)cc1 [Example 57] | < 6.00 | 8.16 |
| CCS(=O)(=O)Nc1ncnc(OCCOc2ncc(OC)cn2)c1-c1ccc(C)cc1 [Example 3, ethanesulfonic acid {6-[2-(5-methoxy-pyrimidin-2-yloxy)-ethoxy]-5-p-tolyl-pyrimidin-4-yl}-amide] | < 6.00 | 7.42 |
| CCCCS(=O)(=O)Nc1nc(C2CC2)nc(OCCOc2ncc(OC)cn2)c1-c1ccc(C)cc1 [Example 78] | < 6.00 | 8.00 |
| CCCCS(=O)(=O)Nc1nc(C2CC2)nc(OCCOc2ncc(SC)cn2)c1-c1ccc(C)cc1 [Example 79] | < 6.00 | 8.68 |
| CCS(=O)(=O)Nc1ncnc(OCCOc2ncc(Br)cn2)c1-c1ccc(C)cc1 [Example 1, ethanesulfonic acid {6-[2-(5-bromo-pyrimidin-2-yloxy)-ethoxy]-5-p-tolyl-pyrimidin-4-yl}-amide] | < 6.00 | 8.40 |
| CCS(=O)(=O)Nc1nc(-c2ncccn2)nc(OCCOc2ncc(Br)cn2)c1Oc1ccccc1OC [Example 7, ethanesulfonic acid [6-[2-(5-bromo-pyrimidin-2-yloxy)-ethoxy]-5-(2-methoxy-phenoxy)-[2,2′]bipyrimidinyl-4-yl]-amide] |  | 7.79 |
| CCS(=O)(=O)Nc1ncnc(OCCOc2ncc(S(C)(=O)=O)cn2)c1-c1ccc(Br)cc1 [Example 61] | 6.57 | 8.96 |
| CCCCS(=O)(=O)Nc1nc(C2CC2)nc(OCCOc2ncc(S(C)(=O)=O)cn2)c1-c1ccc(C)cc1 [Example 80] | < 6.00 | 8.82 |
| CSc1cnc(OCCOc2ncnc(NS(C)(=O)=O)c2-c2ccc(C)cc2)nc1 [Example 49] | < 6.00 | 8.64 |
| CCCCS(=O)(=O)Nc1ncnc(OCCOc2ncc(Br)cn2)c1-c1ccc(Br)cc1 [Example 81] |  | 9.27 |
| CCCS(=O)(=O)Nc1ncnc(OCCOc2ncc(Br)cn2)c1Oc1ccccc1OC [Example 32] | < 6.00 | 7.96 |
| CCS(=O)(=O)Nc1nc(C2CC2)nc(OCCOc2ncc(OC)cn2)c1-c1ccc(C)cc1 [Example 63] | < 6.00 | 7.60 |
| CCCCS(=O)(=O)Nc1ncnc(OCCOc2ncc(Br)cn2)c1Oc1cccc(OC)c1 [Example 28] | 6.23 | 8.54 |
| CSc1cnc(OCCOc2ncnc(NS(C)(=O)=O)c2-c2ccc(Br)cc2)nc1 [Example 55] | 6.34 | 8.89 |
| CCCS(=O)(=O)Nc1ncnc(OCCOc2ncc(S(C)(=O)=O)cn2)c1Oc1ccccc1OC [Example 35] | < 6.00 | 7.96 |
| CCCS(=O)(=O)Nc1ncnc(OCCOc2ncc(SC)cn2)c1-c1ccc(Br)cc1 [Example 72] | 6.03 | 9.22 |
| CCS(=O)(=O)Nc1nc(-c2ncccn2)nc(OCCOc2ncc(SC)cn2)c1Oc1ccccc1OC [Example 11, ethanesulfonic acid [6-[2-(5-methylsulfanyl-pyrimidin-2-yloxy)-ethoxy]-5-(2-methoxy-phenoxy)-[2,2′]bipyrimidinyl-4-yl]-amide] | 7.23 | 8.28 |
| CCCS(=O)(=O)Nc1ncnc(OCCOc2ncc(OC)cn2)c1Oc1ccccc1OC [Example 33] | < 6.00 | 7.40 |
| CCCCS(=O)(=O)Nc1ncnc(OCCOc2ncc(S(C)(=O)=O)cn2)c1-c1ccc(Br)cc1 [Example 84] | 6.93 | 9.25 |
| CCS(=O)(=O)Nc1ncnc(OCCOc2ncc(SC)cn2)c1Oc1ccccc1OC [Example 42] | 6.98 | 8.24 |

| Structure (SMILES) | pIC50 [1] | pIC50 [2] |
| --- | --- | --- |
| COc1ccccc1Oc1c(NS(C)(=O)=O)nc(-c2ncccn2)nc1OCCOc1ncc(Br)cn1 [Example 14] |  | 7.57 |
| COc1ccccc1Oc1c(NS(C)(=O)=O)ncnc1OCCOc1ncc(S(C)(=O)=O)cn1 [Example 20] | < 6.00 | 7.09 |
| CCCS(=O)(=O)Nc1ncnc(OCCOc2ncc(SC)cn2)c1Oc1ccccc1OC [Example 34] | 6.80 | 8.19 |
| CCCS(=O)(=O)Nc1ncnc(OCCOc2ncc(OC)cn2)c1-c1ccc(C)cc1 [Example 6, propane-1-sulfonic acid {6-[2-(5-methoxy-pyrimidin-2-yloxy)-ethoxy]-5-p-tolyl-pyrimidin-4-yl}-amide] | < 6.00 | 7.77 |
| CCCCS(=O)(=O)Nc1nc(C2CC2)nc(OCCOc2ncc(Br)cn2)c1-c1ccc(C)cc1 [Example 77] | < 6.00 | 8.64 |
| CCCS(=O)(=O)Nc1nc(-c2ncccn2)nc(OCCOc2ncc(Br)cn2)c1Oc1ccccc1OC [Example 8] |  | 7.96 |
| COc1ccccc1Oc1c(NS(C)(=O)=O)ncnc1OCCOc1ncc(Br)cn1 [Example 17] | 6.22 | 7.48 |
| CCS(=O)(=O)Nc1ncnc(OCCOc2ncc(S(C)(=O)=O)cn2)c1-c1ccc(Cl)cc1 [Example 69] | 6.50 | 8.92 |
| CCCS(=O)(=O)Nc1nc(-c2ncccn2)nc(OCCOc2ncc(OC)cn2)c1Oc1ccccc1OC [Example 10, n-propanesulfonic acid [6-[2-(5-methoxy-pyrimidin-2-yloxy)-ethoxy]-5-(2-methoxy-phenoxy)-[2,2′]bipyrimidinyl-4-yl]-amide] | 6.16 | 7.37 |
| CCCCS(=O)(=O)Nc1ncnc(OCCOc2ncc(SC)cn2)c1-c1ccc(C)cc1 [Example 76] | < 6.00 | 8.96 |
| CCS(=O)(=O)Nc1nc(C2CC2)nc(OCCOc2ncc(SC)cn2)c1-c1ccc(C)cc1 [Example 64] | < 6.00 | 8.46 |
| CCS(=O)(=O)Nc1ncnc(OCCOc2ncc(SC)cn2)c1-c1ccc(Cl)cc1 [Example 68] | 6.25 | 8.92 |
| COc1cnc(OCCOc2ncnc(NS(C)(=O)=O)c2-c2ccc(C)cc2)nc1 [Example 48] | < 6.00 | 7.64 |
| CCCCS(=O)(=O)Nc1ncnc(OCCOc2ncc(OC)cn2)c1-c1ccc(C)cc1 [Example 75] | < 6.00 | 8.46 |
| CCS(=O)(=O)Nc1ncnc(OCCOc2ncc(OC)cn2)c1Oc1ccccc1OC [Example 41] | 6.17 | 7.55 |
| CCS(=O)(=O)Nc1ncnc(OCCOc2ncc(OC)cn2)c1-c1ccc(Br)cc1 [Example 59] | < 6.00 | 8.17 |
| CCCCS(=O)(=O)Nc1ncnc(OCCOc2ncc(OC)cn2)c1Oc1cccc(OC)c1 [Example 29] | 6.40 | 8.08 |
| CCCCS(=O)(=O)Nc1nc(-c2ncccn2)nc(OCCOc2ncc(OC)cn2)c1Oc1ccccc1OC [Example 26] | 6.06 | 7.72 |
| CCS(=O)(=O)Nc1nc(-c2ncccn2)nc(OCCOc2ncc(OC)cn2)c1Oc1ccccc1OC [Example 12, ethanesulfonic acid [6-[2-(5-methoxy-pyrimidin-2-yloxy)-ethoxy]-5-(2-methoxy-phenoxy)-[2,2′]bipyrimidinyl-4-yl]-amide] | 6.33 | 7.23 |
| CCCCS(=O)(=O)Nc1ncnc(OCCOc2ncc(Br)cn2)c1-c1ccc(C)cc1 [Example 74] | < 6.00 | 9.20 |
| COc1cnc(OCCOc2nc(-c3ncccn3)nc(NS(C)(=O)=O)c2Oc2ccccc2OC)nc1 [Example 15] | 6.14 | 6.90 |
| CCS(=O)(=O)Nc1ncnc(OCCOc2ncc(Br)cn2)c1Oc1ccccc1OC [Example 40] | 6.20 | 7.72 |
| CCCS(=O)(=O)Nc1ncnc(OCCOc2ncc(Br)cn2)c1-c1ccc(Br)cc1 [Example 70] |  | 9.34 |
